The source made the active and inactive calls. The calls are words filed in the database; no cut-off is given here.

Consider two compounds from ChEMBL document CHEMBL3352578 (J Med Chem, 2014).

Data set [1] is described as follows: Oral bioavailability in Sprague-Dawley rat at 10 mg/kg. It counts as ADME, organism-based. The following applies: in vivo.
For data set [2], the target named is T1, Metabotropic glutamate receptor 2 (Homo sapiens, UniProt Q14416). In words: Positive allosteric modulation of human mGlu2 receptor expressed in CHO cells assessed as potentiation of glutamate-induced effect incubated for 30 mins prior to [35S]GTPgamma addition measured after 30 mins relative to glutamate. In kind it is functional, cell-based.
Target sequence in this assay (Q14416 19-872 limits assumed): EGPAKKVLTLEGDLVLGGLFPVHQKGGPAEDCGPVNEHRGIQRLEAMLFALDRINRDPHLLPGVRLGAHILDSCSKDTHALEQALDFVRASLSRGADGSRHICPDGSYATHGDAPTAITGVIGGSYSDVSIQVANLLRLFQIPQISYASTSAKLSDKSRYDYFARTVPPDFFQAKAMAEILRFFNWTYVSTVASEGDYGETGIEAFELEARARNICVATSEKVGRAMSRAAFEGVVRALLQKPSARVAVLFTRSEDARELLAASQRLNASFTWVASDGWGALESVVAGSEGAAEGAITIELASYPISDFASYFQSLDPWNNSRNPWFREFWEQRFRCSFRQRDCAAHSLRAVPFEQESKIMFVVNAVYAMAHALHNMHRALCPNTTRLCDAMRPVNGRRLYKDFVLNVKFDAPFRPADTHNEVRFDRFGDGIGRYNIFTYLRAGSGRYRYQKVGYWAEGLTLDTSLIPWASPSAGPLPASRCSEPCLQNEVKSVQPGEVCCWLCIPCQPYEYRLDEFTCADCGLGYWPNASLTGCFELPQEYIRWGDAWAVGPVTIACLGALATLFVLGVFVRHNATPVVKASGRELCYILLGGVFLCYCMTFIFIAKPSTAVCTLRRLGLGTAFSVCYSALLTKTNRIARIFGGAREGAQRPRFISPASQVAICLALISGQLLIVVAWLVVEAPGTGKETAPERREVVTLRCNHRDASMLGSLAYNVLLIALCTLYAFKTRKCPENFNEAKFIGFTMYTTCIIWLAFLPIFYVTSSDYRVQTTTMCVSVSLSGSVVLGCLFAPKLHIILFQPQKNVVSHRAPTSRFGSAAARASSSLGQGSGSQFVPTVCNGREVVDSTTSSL
The nature of data set [3]: Ratio of drug level in brain to plasma in Swiss mouse at 10 mg/kg, sc after 1 hr. It counts as ADME, organism-based. The arrangement: dose 10 mg/kg, route subcutaneous. To be noted: brain and plasma, read-out: BPR.
The test system of data set [4] is Rattus norvegicus. In words: Positive allosteric modulation of mGlu2 receptor in Sprague-Dawley rat sleep-wake EEG paradigm model assessed as effect on intermediate state at 3 mg/kg, po after 4 hrs by electroencephalogram analysis. More on the design: dose 3 mg/kg. It counts as functional, organism-based.
Data set [5] deals with hERG (KCNH2) (Homo sapiens, UniProt Q12809). In words: Inhibition of human ERG channel transfected in HEK293 cells at 3 uM by patch clamp technique. It counts as cell-based. To be noted: HEK293 cells transfected with human ERG channel.
Data set [6] relates to Rattus norvegicus. In words: Positive allosteric modulation of mGlu2 receptor in Sprague-Dawley rat sleep-wake EEG paradigm model assessed as reduction in REM sleep at 3 mg/kg, po after 4 hrs by electroencephalogram analysis. It counts as functional, organism-based. The arrangement: dose 3 mg/kg.
For data set [7], the system named is Rattus norvegicus. As to the kind of experiment: Positive allosteric modulation of mGlu2 receptor in Sprague-Dawley rat sleep-wake EEG paradigm model assessed as effect on deep sleep stage at 3 mg/kg, po after 4 hrs by electroencephalogram analysis. It counts as functional, organism-based. The arrangement: dose 3 mg/kg.
For data set [8], the system named is Rattus norvegicus. As to the kind of experiment: Positive allosteric modulation of mGlu2 receptor in po dosed Sprague-Dawley rat assessed effect on sleep-wake EEG paradigm after 20 hrs by electroencephalogram analysis. The following applies: for minimal effective dose: Rattus norvegicus, Sprague-Dawley, po, 20 h, read-out: MED. It counts as functional.
Data set [9] is described as follows: Elimination half life in Sprague-Dawley rat at 2.5 mg/kg, iv. It counts as ADME, organism-based. More on the design: dose 2.5 mg/kg, route intravenous. To be noted: in vivo, read-out: beta t1/2 (converted).
Data set [10] can be described thus: Clearance in Sprague-Dawley rat at 2.5 mg/kg, iv. To be noted: in vivo. The arrangement: dose 2.5 mg/kg, route intravenous. It counts as ADME, organism-based.
The nature of data set [11]: Metabolic stability in human liver microsomes assessed as compound metabolized at 5 uM after 15 mins by MS/MS analysis in presence of NADPH. It counts as ADME. To be noted: read-out: Drug metabolism. In general terms: Microsomes from liver hold many membrane-bound enzymes, among them those of drug oxidation.
Data set [12] in a line: Metabolic stability in rat liver microsomes assessed as compound metabolized at 5 uM after 15 mins by MS/MS analysis in presence of NADPH. In kind it is ADME. The following applies: read-out: Drug metabolism.
Data set [13] is described as follows: Cmax in Sprague-Dawley rat at 10 mg/kg, po. It counts as ADME, organism-based. More on the design: dose 10 mg/kg, route oral. To be noted: in vivo.
Data set [14] in a line: AUC (0 to infinity) in Sprague-Dawley rat at 10 mg/kg, po. The following applies: plasma. The arrangement: time infinity, dose 10 mg/kg, route oral. In kind it is ADME, organism-based.
The nature of data set [15]: Tmax in Sprague-Dawley rat at 2.5 mg/kg, iv. To be noted: in vivo. More on the design: dose 2.5 mg/kg, route intravenous. It counts as ADME, organism-based.
Data set [16] deals with Rattus norvegicus. As to the kind of experiment: Positive allosteric modulation of mGlu2 receptor in Sprague-Dawley rat sleep-wake EEG paradigm model assessed as effect on light sleep stage at 3 mg/kg, po after 4 hrs by electroencephalogram analysis. In kind it is functional, organism-based. More on the design: dose 3 mg/kg.
The test system of data set [17] is Rattus norvegicus. In words: Positive allosteric modulation of mGlu2 receptor in Sprague-Dawley rat sleep-wake EEG paradigm model assessed as effect on active wake stage at 3 mg/kg, po after 4 hrs by electroencephalogram analysis. In kind it is functional, organism-based. The arrangement: dose 3 mg/kg.
Data set [18] addresses T1, Metabotropic glutamate receptor 2. As to the kind of experiment: Positive allosteric modulation of human mGlu2 receptor expressed in CHO cells assessed as potentiation of glutamate-induced effect incubated for 30 mins prior to [35S]GTPgamma addition measured after 30 mins. It counts as functional, cell-based.
Target sequence in this assay (Q14416 whole entry): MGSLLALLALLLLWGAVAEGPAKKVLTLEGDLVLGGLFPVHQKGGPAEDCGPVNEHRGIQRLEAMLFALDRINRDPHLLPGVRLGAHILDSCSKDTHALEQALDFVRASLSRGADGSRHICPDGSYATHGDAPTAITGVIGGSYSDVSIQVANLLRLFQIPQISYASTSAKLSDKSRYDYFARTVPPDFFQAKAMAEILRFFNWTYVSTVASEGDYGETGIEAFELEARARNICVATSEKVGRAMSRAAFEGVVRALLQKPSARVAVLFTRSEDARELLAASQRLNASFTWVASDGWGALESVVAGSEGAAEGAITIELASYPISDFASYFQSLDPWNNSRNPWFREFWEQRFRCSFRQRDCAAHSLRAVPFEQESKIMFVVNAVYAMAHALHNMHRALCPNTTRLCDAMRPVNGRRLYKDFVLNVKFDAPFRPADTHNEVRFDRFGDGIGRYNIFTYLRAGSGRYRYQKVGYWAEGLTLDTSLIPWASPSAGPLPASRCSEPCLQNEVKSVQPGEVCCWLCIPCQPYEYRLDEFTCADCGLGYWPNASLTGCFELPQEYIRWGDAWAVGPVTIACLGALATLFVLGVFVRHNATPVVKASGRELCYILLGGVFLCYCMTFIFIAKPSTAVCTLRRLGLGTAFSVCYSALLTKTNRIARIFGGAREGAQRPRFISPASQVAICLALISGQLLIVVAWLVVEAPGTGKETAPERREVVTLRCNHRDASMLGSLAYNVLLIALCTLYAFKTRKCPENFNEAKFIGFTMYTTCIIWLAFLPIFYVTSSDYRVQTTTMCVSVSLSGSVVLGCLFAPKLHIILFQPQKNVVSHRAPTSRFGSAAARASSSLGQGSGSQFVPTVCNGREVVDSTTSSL
The test system of data set [19] is Rattus norvegicus. In words: Positive allosteric modulation of mGlu2 receptor in Sprague-Dawley rat sleep-wake EEG paradigm model assessed as effect on passive wake stage at 3 mg/kg, po after 4 hrs by electroencephalogram analysis. In kind it is functional, organism-based. More on the design: dose 3 mg/kg.

Sequence of hERG (KCNH2) (Q12809 whole entry): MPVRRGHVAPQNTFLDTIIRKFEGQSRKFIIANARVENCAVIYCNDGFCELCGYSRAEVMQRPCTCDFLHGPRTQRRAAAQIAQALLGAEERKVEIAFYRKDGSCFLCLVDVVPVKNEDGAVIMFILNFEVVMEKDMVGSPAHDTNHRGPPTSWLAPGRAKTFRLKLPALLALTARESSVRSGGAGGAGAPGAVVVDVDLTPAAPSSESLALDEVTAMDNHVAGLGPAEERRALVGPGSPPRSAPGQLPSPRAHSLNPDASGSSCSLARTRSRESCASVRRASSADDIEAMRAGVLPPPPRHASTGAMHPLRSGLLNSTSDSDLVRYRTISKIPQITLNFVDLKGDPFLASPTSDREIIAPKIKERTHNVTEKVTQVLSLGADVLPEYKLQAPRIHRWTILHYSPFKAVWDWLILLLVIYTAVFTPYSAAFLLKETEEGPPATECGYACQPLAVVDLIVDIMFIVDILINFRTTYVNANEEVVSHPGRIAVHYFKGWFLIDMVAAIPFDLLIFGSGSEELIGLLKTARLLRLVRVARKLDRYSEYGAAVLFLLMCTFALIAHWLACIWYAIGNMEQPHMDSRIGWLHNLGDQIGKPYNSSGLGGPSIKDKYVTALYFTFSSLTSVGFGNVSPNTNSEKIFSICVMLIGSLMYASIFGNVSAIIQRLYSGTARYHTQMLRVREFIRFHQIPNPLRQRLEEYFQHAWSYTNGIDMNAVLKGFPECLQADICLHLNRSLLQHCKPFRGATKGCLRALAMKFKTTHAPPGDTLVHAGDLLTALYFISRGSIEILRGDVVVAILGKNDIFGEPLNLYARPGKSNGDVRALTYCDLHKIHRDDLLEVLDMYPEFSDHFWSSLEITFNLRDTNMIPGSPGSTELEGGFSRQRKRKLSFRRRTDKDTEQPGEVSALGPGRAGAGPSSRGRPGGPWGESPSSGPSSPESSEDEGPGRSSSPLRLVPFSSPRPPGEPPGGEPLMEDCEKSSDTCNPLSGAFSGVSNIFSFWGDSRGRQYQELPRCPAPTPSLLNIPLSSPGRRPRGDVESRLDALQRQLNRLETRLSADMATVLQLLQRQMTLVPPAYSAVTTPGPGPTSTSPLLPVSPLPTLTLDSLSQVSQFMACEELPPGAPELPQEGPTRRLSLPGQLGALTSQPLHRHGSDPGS

On to `N#Cc1c(N2CCC(c3ccccc3)CC2)ccn(CC2CC2)c1=O`, for which, in data set [1], the bioavailability (commonly the share of a dose that reaches the circulation, judged against a reference dose that is usually intravenous) is 51%. Besides, the Emax (commonly the maximal effect, on the per cent scale that the assay sets) in data set [2] was 309%. Besides, the Kp at 1 h in data set [3] stood at 0.3. Also, the outcome in data set [4], in data set [7], in data set [16], in data set [17] and in data set [19] was inactive. Besides, the inhibition (commonly the drop in the measured response relative to a control, in per cent) at 3 µM in [5] was 58%. In [6], the outcome was Active. This compound also showed an MEC in data set [8] of 420 ng/mL. The minimal effective dose in data set [8] turned out to be 3 mg/kg. Also, the half-life in [9] is 2.1 h. The clearance (usually the rate of elimination divided by the concentration) in [10] stood at 18 mL/min/kg. The results for the metabolised at 0.25 h, 5 µM in data set [11] and in [12] were 25% and 44%, respectively. Moreover, the Cmax (usually the peak of the concentration-time curve) in [13] was determined as 1410 ng/mL. The AUC(0-inf) (as a rule, the area under the concentration-time curve extrapolated to infinity) in [14] was 4350 ng·h/mL. For the same compound, in data set [15], the time of peak concentration (Tmax) (commonly the time at which the peak concentration occurs) came to 0.5 h. Besides, in data set [18], the EC50 (in general, the concentration at which the effect is half-maximal) stood at 151 nM.
Compound `O=c1c(Cl)c(N2CCC(c3ccccc3)CC2)ccn1CC1CC1` came in with a bioavailability in [1] of 34%. In [2], the maximal response (Emax) was found to be 259%. Moreover, in data set [3], the Kp at 1 h amounted to 0.9. In addition, the result in data set [4], in data set [6], in data set [7], in data set [16], in [17] and in [19] was inactive. Moreover, in [5], testing at 3 µM gave an inhibition of 51%. This compound gave an MEC in data set [8] of over 986 ng/mL. Besides, in data set [8], the minimal effective dose is over 10 mg/kg. Further, the half-life in data set [9] is 3.5 h. In [10], this compound displayed a clearance of 24 mL/min/kg. The values for the metabolised at 0.25 h, 5 µM in [11] and in [12] were 17% and 30%, respectively. This compound showed a Cmax in data set [13] of 986 ng/mL. The same compound showed an AUC(0-inf) in data set [14] of 2310 ng·h/mL. The Tmax in [15] was 0.5 h. Besides, the 50% effective concentration (EC50) in [18] was determined as 170 nM.
